The test system of assay [1] is JAK-STAT. The assay is described as follows: JAK-STAT signalling assay (OSM-triggered pSTAT1(2)-luciferase reporter in HeLa cells). In kind it is cell-based, human. Here is the method:
HeLa cells were maintained in Dulbecco's Modified Eagle's Medium (DMEM) containing 10% heat inactivated fetal calf serum, 100 U/mL penicillin and 100 μg/mL streptomycin. HeLa cells were used at 70% confluence for transfection. 20,000 cells in 87 μL cell culture medium were transiently transfected with 40 ng pSTAT1(2)-luciferase reporter (Panomics), 8 ng of LacZ reporter as internal control reporter and 52 ng of pBSK using 0.32 μL Jet-PEI (Polyplus) as transfection reagent per well in 96-well plate format. After overnight incubation at 37° C., 5% CO2, transfection medium was removed. 81 μL of DMEM+1.5% heat inactivated fetal calf serum was added. 9 μL compound at 10× concentration was added for 60 min and then 10 μL of human OSM (Peprotech) at 33 ng/mL final concentration.
The compound was tested in duplicate starting from 20 μM followed by a 1/3 serial dilution, 8 doses in total (20 μM-6.6 μM-2.2 μM-740 nM-250 nM-82 nM-27 nM-9 nM) in a final concentration of 0.2% DMSO.
After overnight incubation at 37° C., 5% CO2 cells were lysed by adding 100 μL lysis buffer/well (PBS, 0.9 mM CaCl2, 0.5 mM MgCl2, 10% Trehalose, 0.05% Tergitol NP9, 0.3% BSA).
40 μL of cell lysate was used to read β-galactosidase activity by adding 180 μL 11-Gal solution (30 μL ONPG 4 mg/mL+150 μL β-Galactosidase buffer (0.06 M Na2HPO4, 0.04 M NaH2PO4, 1 mM MgCl2)) for 20 min. The reaction was stopped by addition of 50 μL Na2CO3 1 M. Absorbance was read at 405 nm.
Luciferase activity was measured using 40 μL cell lysate plus 40 μL of Steadylite® as described by the manufacturer (Perkin Elmer), on the Envision (Perkin Elmer).
Omitting OSM was used as a positive control (100% inhibition). As negative control […] (0% inhibition) was used. The positive and negative controls were used to calculate z′ and ‘percent inhibition’ (PIN) values.
Percentage inhibition=((fluorescence determined in the presence of vehicle−fluorescence determined for sample with test compound present) divided by (fluorescence determined in the presence of vehicle−fluorescence determined for sample without trigger))*100.
PIN values were plotted for compounds tested in dose-response and EC50 values were derived.
On the technique in general: Reporter assays use an easily measured gene product as a stand-in for the process of interest.

Assay [2] has as its system IL-2-induced STAT5 phosphorylation (JAK1/JAK3 pathway). In words: Human whole blood assay (hWBA), IL-2 stimulation, phospho-STAT5 on CD4+ cells. The class given is cell-based. Conditions: 5 different donors. Here is the method: A flow cytometry analysis was performed to establish JAK1 over JAK2 compound selectivity ex vivo using human whole blood. Therefore, blood is taken from human volunteers who gave informed consent. Blood is then equilibrated for 30 min at 37° C. under gentle rocking, then aliquoted in Eppendorf tubes. Compound is added at different concentrations and incubated at 37° C. for 30 min under gentle rocking and subsequently stimulated for 20 min at 37° C. under gentle rocking with interleukin 6 (IL-6) for JAK1-dependent pathway stimulation, Interferon alpha (IFNα) for JAK1/TYK2 pathway stimulation, interleukin 2 (IL-2) for JAK1/JAK3 pathway stimulation or GM-CSF for JAK2-dependent pathway stimulation. Phospho-STAT1 (for IL-6- and IFNα-stimulated cells) and phospho-STAT5 (for IL-2- and GM-CSF-stimulated cells) levels are then evaluated using FACS analysis. […]
Cells were then washed once with 1×PBS and analyzed on a FACSCanto II flow cytometer (BD Biosciences).
50,000 total events were counted and Phospho-STAT1 positive cells were measured after gating on CD4+ cells, in the lymphocyte gate for IL-6- and IFNα-stimulated cells. Phospho-STAT5 positive cells were measured after gating on CD4+ cells, in the lymphocyte gate for IL-2-stimulated cells. Phospho-STAT5 positive cells were measured after gating on CD33+ cells. […]

Molecules are shown by their SMILES. “And” between values parts separate entries of the source, which are not always exact repeats. Identical values can stand only once. Like-named read-outs stand apart in the source and are kept apart here. Some results are limits rather than exact numbers.

As to `Nc1nc2cccc(-c3ccc(CN4CCS(=O)(=O)CC4)cc3)n2n1` [Formula I, 5-[4-(1,1-Dioxothiomorpholin-4-ylmethyl)-phenyl]-[1,2,4]triazolo[1,5-a]pyridin-2-ylamine], the IC50 (usually the concentration that gives 50% inhibition) in assay [1] (Homo sapiens, HeLa, average, read-out: IC50 (average)) was over 7.43 µM; in assay [1] (Homo sapiens, HeLa, individual determinations, read-out: IC50) it was over 6.67 µM; in assay [1] (individual determinations) it was “Non active”; in assay [1] (individual determinations, read-out: IC50), > 6.67 µM and 8.94 µM; in assay [2], 19.6 µM.

These data come from US20160296529A1, “AMINOTRIAZOLOPYRIDINE FOR USE IN THE TREATMENT OF INFLAMMATION, AND PHARMACEUTICAL COMPOSITIONS THEREOF” (priority 2012, published 2016).
